Reference: PMC5544727, “The type IV pilus assembly ATPase PilB functions as a signaling protein to regulate exopolysaccharide production in Myxococcus xanthus” (Scientific Reports, 2017)
Where a chain is given by its changes, count along the chain named.

How the values were obtained:
Format in all cases: binding
[1] = target: T1, PilB^WT (T. thermophilus PilB/PilF, TtPilB) (Thermus thermophilus, UniProt Q72H73); assay: DSF thermal stabilization, […] ligand (no Kd)
[2] = target: T2, PilB^WB (T. thermophilus PilB/PilF, TtPilB) (Thermus thermophilus, UniProt Q5SLC9, E718A); assay: DSF thermal stabilization, […] ligand (no Kd)
T2 sequence (Q5SLC9 1-889 E718A): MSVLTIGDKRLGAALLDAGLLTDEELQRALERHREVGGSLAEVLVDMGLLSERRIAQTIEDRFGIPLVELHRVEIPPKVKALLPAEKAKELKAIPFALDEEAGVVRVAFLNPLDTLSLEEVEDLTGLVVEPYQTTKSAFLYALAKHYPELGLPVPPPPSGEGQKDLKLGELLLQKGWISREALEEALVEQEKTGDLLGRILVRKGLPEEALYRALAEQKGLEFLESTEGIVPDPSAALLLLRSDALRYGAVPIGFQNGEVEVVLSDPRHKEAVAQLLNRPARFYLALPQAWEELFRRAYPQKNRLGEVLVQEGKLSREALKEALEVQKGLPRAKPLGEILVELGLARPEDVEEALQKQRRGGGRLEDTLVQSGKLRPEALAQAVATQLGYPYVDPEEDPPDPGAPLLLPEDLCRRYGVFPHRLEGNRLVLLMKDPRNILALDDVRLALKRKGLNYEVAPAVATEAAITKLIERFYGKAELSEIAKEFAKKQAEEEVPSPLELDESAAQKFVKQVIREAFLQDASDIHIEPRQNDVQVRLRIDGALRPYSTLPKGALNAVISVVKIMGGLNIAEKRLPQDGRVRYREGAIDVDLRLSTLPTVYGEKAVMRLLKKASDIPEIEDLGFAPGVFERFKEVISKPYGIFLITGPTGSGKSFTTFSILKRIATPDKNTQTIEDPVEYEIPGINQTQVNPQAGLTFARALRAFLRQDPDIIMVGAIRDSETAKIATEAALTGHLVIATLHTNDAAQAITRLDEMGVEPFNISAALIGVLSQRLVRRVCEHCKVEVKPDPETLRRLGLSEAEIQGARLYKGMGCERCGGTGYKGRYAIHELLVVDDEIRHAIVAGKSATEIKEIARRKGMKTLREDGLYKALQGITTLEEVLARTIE

[3] = target: T3, PilB^WA (T. thermophilus PilB/PilF, TtPilB) (Thermus thermophilus, UniProt Q5SLC9, K654A); assay: near-UV CD spectral shift (less pronounced than WT), […] ligand
T3 sequence (Q5SLC9 1-889 K654A): T2 sequence (Q5SLC9 1-889 E718A) with K654A, A718E

[4] = target: T1, PilB^WT (T. thermophilus PilB/PilF, TtPilB); assay: near-UV CD spectral shift, […] ligand
[5] = target: T2, PilB^WB (T. thermophilus PilB/PilF, TtPilB); assay: near-UV CD spectral shift, […] ligand
[6] = target: T3, PilB^WA (T. thermophilus PilB/PilF, TtPilB); assay: fluorescence titration of MANT-ATP with purified protein
[7] = target: T1, PilB^WT (T. thermophilus PilB/PilF, TtPilB); assay: as above
[8] = target: T2, PilB^WB (T. thermophilus PilB/PilF, TtPilB); assay: as above

T1 sequence (Q72H73 entry or part of it): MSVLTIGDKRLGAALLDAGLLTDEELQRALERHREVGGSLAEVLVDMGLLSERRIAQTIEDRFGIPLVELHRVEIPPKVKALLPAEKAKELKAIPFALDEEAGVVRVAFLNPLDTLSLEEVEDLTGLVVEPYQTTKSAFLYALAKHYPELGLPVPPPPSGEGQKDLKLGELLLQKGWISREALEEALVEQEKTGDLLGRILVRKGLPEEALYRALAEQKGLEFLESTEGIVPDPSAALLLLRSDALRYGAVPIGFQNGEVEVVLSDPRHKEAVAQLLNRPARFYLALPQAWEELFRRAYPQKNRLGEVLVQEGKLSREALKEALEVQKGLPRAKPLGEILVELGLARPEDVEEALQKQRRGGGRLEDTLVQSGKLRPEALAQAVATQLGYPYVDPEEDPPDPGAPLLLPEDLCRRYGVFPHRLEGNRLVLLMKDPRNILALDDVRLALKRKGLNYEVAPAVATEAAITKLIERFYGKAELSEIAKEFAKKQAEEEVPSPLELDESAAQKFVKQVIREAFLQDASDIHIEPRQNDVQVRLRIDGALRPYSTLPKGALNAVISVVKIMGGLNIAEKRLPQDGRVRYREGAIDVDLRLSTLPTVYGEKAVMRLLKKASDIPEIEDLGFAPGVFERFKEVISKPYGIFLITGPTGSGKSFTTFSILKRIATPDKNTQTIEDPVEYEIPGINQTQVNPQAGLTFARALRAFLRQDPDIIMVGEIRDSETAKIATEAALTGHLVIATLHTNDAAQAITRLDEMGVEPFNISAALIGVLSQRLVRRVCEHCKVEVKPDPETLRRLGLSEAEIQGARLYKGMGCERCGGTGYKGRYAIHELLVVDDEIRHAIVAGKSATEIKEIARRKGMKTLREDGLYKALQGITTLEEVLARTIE

Question: Which “DSF thermal stabilization, 0.4 mM ligand (no Kd)” value [1] does the source give for Nc1ncnc2c1ncn2[C@@H]1O[C@H](CO[P@](=O)(O)O[P@](=O)(O)NP(=O)(O)O)[C@@H](O)[C@H]1O [AMP-PNP, adenosine 5′-(β,γ-imido)triphosphate] here?
Answer: The value was “This nucleotide stabilized both PilB^WT and PilB^WB, resulting in the disappearance of the first unfolding transition”.

Question: What about the “DSF thermal stabilization, 0.4 mM ligand (no Kd)” value [2] of the same compound?
Answer: Its value is “This nucleotide stabilized both PilB^WT and PilB^WB, resulting in the disappearance of the first unfolding transition”.

Question: For Nc1ncnc2c1ncn2[C@@H]1O[C@H](COP(=O)(O)OP(=O)(O)OP(=O)(O)O)[C@@H](O)[C@H]1O [ATP], which “near-UV CD spectral shift (less pronounced than WT), 0.1 mM ligand” value [3] is on record?
Answer: Its value is “the shift for PilB^WA is less pronounced compared to those seen for the other two”.

Question: With Nc1ncnc2c1ncn2[C@@H]1O[C@H](COP(=O)(O)OP(=O)(O)O)[C@@H](O)[C@H]1O [ADP] as the compound, how does the “near-UV CD spectral shift, 0.1 mM ligand” value [4] read?
Answer: The value was “The addition of ADP also shifted the spectra of PilB^WT and PilB^WB, but not that of PilB^WA”.

Question: What about the “near-UV CD spectral shift, 0.1 mM ligand” value [5] of the same compound?
Answer: Its value is “The addition of ADP also shifted the spectra of PilB^WT and PilB^WB, but not that of PilB^WA”.

Question: With CNc1ccccc1C(=O)O[C@H]1[C@@H](O)[C@H](n2cnc3c(N)ncnc32)O[C@@H]1CO[P@@](=O)(O)O[P@](=O)(O)OP(=O)(O)O (mixture of isomers) [MANT-ATP, 2′-/3′-O-(N-methylanthraniloyl) adenosine-5′-triphosphate] as the compound, how does the Kd [6] read?
Answer: The Kd was 1230 nM.

Question: What about the Kd [7] of the same compound?
Answer: Its Kd is 170 nM.

Question: And the Kd [8]?
Answer: Its Kd is 190 nM.
